{
  "source": "paper PMC10272180",
  "about": "“Ancient medicinal plant rosemary contains a highly efficacious and isoform-selective KCNQ potassium channel opener” (Communications Biology, 2023)",
  "key": {"KCNQ3*-G245A": {"target": "KCNQ3*-G245A (Homo sapiens, UniProt O43525, A315T/G245A)", "assay": "TEVC of mutant KCNQ3*-G245A in oocytes", "assay_type": "cell-based", "conditions": "100 µM", "excerpt": "(§1) We generated cRNA transcripts encoding human KCNQ1, 2, 3, and 5 (wild-type and mutant) by in vitro transcription using the mMessage mMachine kit (Thermo Fisher Scientific, Waltham, MA, USA) according to manufacturer’s instructions, after vector linearization, from cDNA sub-cloned into expression vectors (pTLNx and pXOOM) incorporating Xenopus laevis β-globin 5’ and 3’ UTRs flanking the coding region to enhance translation and cRNA stability. Mutant KCNQ cDNAs were generated by Genscript (Piscataway, NJ, USA) and cRNAs made as above. We injected defolliculated stage V and VI Xenopus laevis oocytes (Xenoocyte, Dexter, MI, USA) with KCNQ cRNAs (2–10 ng) and incubated the oocytes at 16 °C in ND96 oocyte storage solution containing penicillin and streptomycin, with daily washing, for 2–4 days prior to two-electrode voltage-clamp (TEVC) recording.\nWe performed TEVC at room temperature using an OC-725C amplifier (Warner Instruments, Hamden, CT, USA) and pClamp10 software (Molecular Devices, Sunnyvale, CA, USA) 2–4 days after cRNA injection. […] We recorded currents in response to voltage pulses between −120 mV and +40 mV at 10 mV intervals from a holding potential of −80 mV, to yield current-voltage relationships and examine activation kinetics. We analyzed data using Clampfit (Molecular Devices) and Graphpad Prism software (GraphPad, San Diego, CA, USA), stating values as mean ± SEM. […]"}, "KCNQ3* (KCNQ3-A315T)": {"target": "KCNQ3* (KCNQ3-A315T) (Homo sapiens, UniProt O43525, A315T)", "sequence (O43525 whole entry A315T)": "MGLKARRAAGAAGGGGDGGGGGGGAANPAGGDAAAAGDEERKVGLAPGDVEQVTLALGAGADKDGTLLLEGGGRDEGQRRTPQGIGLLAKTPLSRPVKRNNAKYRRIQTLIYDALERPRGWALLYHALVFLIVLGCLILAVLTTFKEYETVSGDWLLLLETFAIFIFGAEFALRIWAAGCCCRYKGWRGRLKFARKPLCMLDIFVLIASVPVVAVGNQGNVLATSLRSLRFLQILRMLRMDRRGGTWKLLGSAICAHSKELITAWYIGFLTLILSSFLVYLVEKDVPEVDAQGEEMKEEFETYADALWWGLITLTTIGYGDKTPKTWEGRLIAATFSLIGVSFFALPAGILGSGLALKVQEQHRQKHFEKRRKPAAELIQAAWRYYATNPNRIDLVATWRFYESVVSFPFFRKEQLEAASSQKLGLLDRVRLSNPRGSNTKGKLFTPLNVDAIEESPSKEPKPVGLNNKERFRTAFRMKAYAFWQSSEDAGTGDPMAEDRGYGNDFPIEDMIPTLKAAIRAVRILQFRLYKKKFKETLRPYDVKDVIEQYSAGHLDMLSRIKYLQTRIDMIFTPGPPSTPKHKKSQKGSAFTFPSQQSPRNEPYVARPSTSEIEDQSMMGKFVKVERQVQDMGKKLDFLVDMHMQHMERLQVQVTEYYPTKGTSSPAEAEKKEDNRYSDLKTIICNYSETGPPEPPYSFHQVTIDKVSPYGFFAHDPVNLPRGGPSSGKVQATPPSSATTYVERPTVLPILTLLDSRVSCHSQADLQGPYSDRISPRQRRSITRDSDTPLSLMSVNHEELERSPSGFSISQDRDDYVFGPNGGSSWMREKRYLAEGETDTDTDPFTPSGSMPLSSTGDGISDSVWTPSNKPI", "assay": "TEVC of KCNQ3* homomers expressed in Xenopus laevis oocytes", "assay_type": "cell-based"}, "KCNQ2/3": {"target": "T1, KCNQ2/3 (Homo sapiens, UniProt O43525+O43526)", "T1 construct": "expressed in transfected cells; host or cells: Xenopus laevis oocytes co-injected with cRNAs", "assay": "TEVC of KCNQ2/3 heteromers expressed in Xenopus laevis oocytes", "assay_type": "cell-based", "excerpt": "as §1\n(§2) We placed oocytes in a small-volume oocyte bath (Warner) and viewed them with a dissection microscope for cellular electrophysiology. We sourced chemicals from Sigma-Aldrich (St. Louis, MO, USA) and Combi-Blocks (San Diego, CA, USA). We studied effects of Salvia rosmarinus extracts and of compounds, solubilized directly in bath solution (in mM): 96 NaCl, 4 KCl, 1 MgCl2, 1 CaCl2, 10 HEPES (pH 7.6). We introduced extracts or compounds into the oocyte recording bath by gravity perfusion at a constant flow of 1 ml per minute for 3 min prior to recording. Pipettes were of 1-2 MΩ resistance when filled with 3 M KCl. […] We analyzed data using Clampfit (Molecular Devices) and Graphpad Prism software (GraphPad, San Diego, CA, USA), stating values as mean ± SEM. We plotted raw or normalized tail currents versus prepulse voltage and fitted with a single Boltzmann function:1 g=(A1−A2)/1+exp[V1/2−V/Vs]y+A2 where g is the normalized tail conductance, A1 is the initial value at -∞, A2 is the final value at +∞, V1/2 is the half-maximal voltage of activation and Vs the slope factor. We fitted activation and deactivation kinetics with single exponential functions."}, "[1]": {"conditions": "cited from earlier work"}, "KCNQ3/5": {"target": "T2, KCNQ3/5 (Homo sapiens, UniProt O43525+Q9NR82)", "T2 construct": "expressed in transfected cells; host or cells: Xenopus laevis oocytes co-injected with cRNAs", "assay": "TEVC of KCNQ3/5 heteromers expressed in Xenopus laevis oocytes", "assay_type": "cell-based", "excerpt": "as §1\nas §2, with “We performed TEVC at room temperature using an OC-725C amplifier (Warner Instruments, Hamden, CT, USA) and pClamp10 software (Molecular Devices, Sunnyvale, CA, USA) 2–4 days after cRNA injection. We placed” for “We placed”"}, "[2]": {"conditions": "5 µM, post 3 hrs. incubation 30 µM Wortmannin"}},
  "data": [
    {"compound": "CC(C)c1cc2c(c(O)c1O)[C@@]1(C(=O)O)CCCC(C)(C)[C@@H]1CC2", "note": "[Carnosic acid, carnosic acid]", "values": [
      {"measurement": "Slope", "setting": "KCNQ3*-G245A", "value": "12.79 ± 4.65", "unit": "mV"},
      {"measurement": "V0.5 Normalized tail current", "setting": "KCNQ3*-G245A", "value": "-129.4 ± 1.24", "unit": "mV"},
      {"measurement": "V0.5 Normalized tail current", "setting": "KCNQ3* (KCNQ3-A315T); 0.1 µM", "value": "-55.21 ± 0.45", "unit": "mV"},
      {"measurement": "V0.5 Normalized tail current", "setting": "KCNQ3* (KCNQ3-A315T); 1 µM", "value": "-59.60 ± 0.47", "unit": "mV"},
      {"measurement": "V0.5 Normalized tail current", "setting": "KCNQ3* (KCNQ3-A315T); 3 µM", "value": "-63.92 ± 0.74", "unit": "mV"},
      {"measurement": "slowing of deactivation rate", "setting": "KCNQ3* (KCNQ3-A315T); 3 µM, at −120 mV", "value": "> fourfold"},
      {"measurement": "change of activation rate", "setting": "KCNQ3* (KCNQ3-A315T); 3 µM, voltage-independent", "value": "doubled"},
      {"measurement": "Slope", "setting": "KCNQ3* (KCNQ3-A315T); 5 µM", "value": "7.61 ± 0.94", "unit": "mV"},
      {"measurement": "V0.5 Normalized tail current", "setting": "KCNQ3* (KCNQ3-A315T); 5 µM", "value": "-63.93 ± 1.08", "unit": "mV"},
      {"measurement": "Slope", "setting": "KCNQ3* (KCNQ3-A315T); [2]", "value": "6.70 ± 0.56", "unit": "mV"},
      {"measurement": "V0.5 Normalized tail current", "setting": "KCNQ3* (KCNQ3-A315T); [2]", "value": "-46.82 ± 0.64", "unit": "mV"},
      {"measurement": "time to saturation of current potentiation upon wash-in", "setting": "KCNQ3* (KCNQ3-A315T); 5 µM, −60 mV", "value": "around 150 s"},
      {"measurement": "V0.5 Normalized tail current", "setting": "KCNQ3* (KCNQ3-A315T); 10 µM", "value": "-73.28 ± 1.41", "unit": "mV"},
      {"measurement": "V0.5 Normalized tail current", "setting": "KCNQ3* (KCNQ3-A315T); 30 µM", "value": "-92.58 ± 2.21", "unit": "mV"},
      {"measurement": "Slope", "setting": "KCNQ3* (KCNQ3-A315T); 100 µM", "value": "9.91 ± 0.62", "unit": "mV"},
      {"measurement": "V0.5 non-normalized tail current", "setting": "KCNQ3* (KCNQ3-A315T); 100 µM", "value": "-111.1 ± 5.75", "unit": "mV"},
      {"measurement": "effect on EM of unclamped oocytes", "setting": "KCNQ3* (KCNQ3-A315T); 100 µM (hesperidin 30 µM)", "value": "hyperpolarized"},
      {"measurement": "EC50", "setting": "KCNQ3* (KCNQ3-A315T); EC50 EM, EM of unclamped oocytes", "value": "1.19 ± 0.19", "unit": "µM"},
      {"measurement": "EC50", "setting": "KCNQ3* (KCNQ3-A315T); EC50 Fold change -60 mV, current increase at −60 mV", "value": "5.43 ± 0.37", "unit": "µM"},
      {"measurement": "EC50", "setting": "KCNQ3* (KCNQ3-A315T); EC50 V0.5 Activation, ΔV0.5act", "value": "18 ± 0.72", "unit": "µM"},
      {"measurement": "V0.5 Normalized tail current", "setting": "KCNQ2/3; 0.1 µM", "value": "-44.63 ± 0.46", "unit": "mV"},
      {"measurement": "V0.5 Normalized tail current", "setting": "KCNQ2/3; 1 µM", "value": "-45.44 ± 0.41", "unit": "mV"},
      {"measurement": "V0.5 Normalized tail current", "setting": "KCNQ2/3; 3 µM", "value": "-46.40 ± 0.45", "unit": "mV"},
      {"measurement": "V0.5 Normalized tail current", "setting": "KCNQ2/3; 10 µM", "value": "-47.94 ± 0.61", "unit": "mV"},
      {"measurement": "V0.5 Normalized tail current", "setting": "KCNQ2/3; 30 µM", "value": "-49.09 ± 0.55", "unit": "mV"},
      {"measurement": "V0.5 Normalized tail current", "setting": "KCNQ2/3; 100 µM", "value": "-49.95 ± 0.65", "unit": "mV"},
      {"measurement": "activity across the concentration range tested", "setting": "KCNQ2/3; 0.1-100 µM", "value": "only weakly active"},
      {"measurement": "blood brain barrier crossing", "setting": "[1]", "value": "crosses the blood brain barrier"},
      {"measurement": "V0.5 Normalized tail current", "setting": "KCNQ3/5; 0.1 µM", "value": "-41.88 ± 0.50", "unit": "mV"},
      {"measurement": "V0.5 Normalized tail current", "setting": "KCNQ3/5; 1 µM", "value": "-47.59 ± 0.51", "unit": "mV"},
      {"measurement": "V0.5 Normalized tail current", "setting": "KCNQ3/5; 3 µM", "value": "-52.07 ± 0.47", "unit": "mV"},
      {"measurement": "V0.5 Normalized tail current", "setting": "KCNQ3/5; 10 µM", "value": "-56.02 ± 0.57", "unit": "mV"},
      {"measurement": "V0.5 Normalized tail current", "setting": "KCNQ3/5; 30 µM", "value": "-62.10 ± 0.87", "unit": "mV"},
      {"measurement": "V0.5 Normalized tail current", "setting": "KCNQ3/5; 100 µM", "value": "-68.83 ± 1.11", "unit": "mV"},
      {"measurement": "channel opening", "setting": "KCNQ3/5; 100 µM", "value": "powerful opener"},
      {"measurement": "EC50", "setting": "KCNQ3/5; EC50 EM", "value": "4.21 ± 0.16", "unit": "µM"},
      {"measurement": "EC50", "setting": "KCNQ3/5; EC50 V0.5 Activation", "value": "4.53 ± 0.11", "unit": "µM"}
    ]}
  ]
}
